Assay results as given in paper PMC4336331, “Novel Receptor-Derived Cyclopeptides to Treat Heart Failure Caused by Anti-β1-Adrenoceptor Antibodies in a Human-Analogous Rat Model” (PLoS ONE, 2015).

How the values were obtained:
[1] = test system: anti-β1EC2-induced β1-AR/cAMP signaling in HEKβ1-cells; test: FRET cAMP assay (Epac1-camps), blockade of anti-β1EC2-induced signals; format: cell-based, human; details: HEKβ1-cells with Epac1-camps FRET-sensor; IgG pre-incubated with peptide (Fig. 1F)
Method: The effects of anti-β1EC2 on β1AR-mediated intracellular cAMP-production were assessed by measuring fluorescence resonance energy transfer (FRET) in HEKβ1-cells transiently transfected with a FRET-sensor for cAMP, Epac1-camps. The sensor consists of the cAMP-binding protein Epac1 flanked by enhanced cyan or yellow fluorescent protein. […] IgG-preparations were added to the cells at 0.13 μg/μl protein concentration; 2μM (-)isoproterenol (Sigma) was used as a reference to determine the maximal cAMP-response. To test the blocking-efficacy of β1EC2-CP on anti-β1EC2-induced adrenergic signaling, the different IgG-preparations were pre-incubated with β1EC2-CP (20 μg/μl) for 6 h at 4 °C; for pharmacological blockade of anti-β1EC2-induced signals we utilised 5.0μM bisoprolol.
(D) Immunostaining experiments with rat anti- β1EC2 (1:100) using HEK-cells stably expressing β1-ARs (HEK β1) or not (wild type; HEK WT). IgG was prepared from anti- β1EC2-positive rats or 0.9% NaCl-injected control rats. Amino-terminal β1AR-specific rabbit anti-bodies (1:250) served as positive controls. […] HEK β1-cells were transfected with the cAMP-sensor Epac1-camps, which reacts to cAMP-binding with a reduction in fluorescence resonance energy transfer (FRET) between its fluorophores cyan (CFP) and yellow fluorescent protein (YFP). […] Representative FRET-ratio traces of 1/5 experiments are shown. Values are given in % of maximal cAMP-response achieved with 0.3μM (-)isoproterenol (Iso).

rat anti-β1EC2 = test: Competition-ELISA, blocking of rat anti-β1EC2; format: binding; details: preincubation (12h, 4°C) with 40-fold excess of peptide; linear β1EC2-peptides (AA199-223) as antigen; n = 20 (Fig. 1B)

cyclo(RATHQEAINCYANETCCDFFTNQG) (cysteine pairing not given here) [β2EC2-CP, control for specificity, reference compound]
blockade of anti-β1EC2-induced cAMP-signals, in words [1]: not blocked at all | blocking of anti-β1EC2 in competition-ELISA, in words (rat anti-β1EC2): not blocked at all
